Patent US20160184274A1, “Methods for inhibiting mesenchymal phenotype after epithelial-to-mesenchymal transition” (Fibrostatin, S.L., priority 2014, published 2016)
Entries after “also recorded” stand apart in the source; their conditions may differ.

Tests used:
[1] = tested on: mesenchymal A549 spheroids; test: Intracellular doxorubicin accumulation and viability in spheroids; format: cell-based, Human; conditions: FIG. 9
Protocol: FIG. 9. T12 enhances intracellular accumulation of doxorubicin in A549 mesenchymal spheroids. A549 spheroids were subjected to EMT induction with TGF-β and TNF-α during 4 days, and treated with T12 (10 μM) or maintained untreated (Placebo) for the last 2 days. Three hours before spheroid analysis doxorubicin (1 μM) was added. Spheroids were fixed and analyzed by immunofluorescence confocal microscopy with anti-α1α2(IV) antibodies for collagen IV network visualization (grey). Doxorubicin was detected by its own auto-fluorescence. […] Three-dimensional spheroid cultures of A549 cells were obtained using a hanging droplet method (Kelm et al., 2003. Biotechnol. Bioeng. 83: 173-180.; Kumar et al., 2013. PLoS One. 8: e68597). Briefly, cells were grown to approximately 80% confluence on adherent tissue-culture flasks. Then cells were trypsinized, dispersed in DMEM/10% FBS, and counted using an automated cell counter (MOXI® Z, Orflo). The cell suspension was diluted to a 10^6 cells/mL-concentration, and 25 μl of the cell suspension were pipetted onto the underside of a sterile 10-cm tissue culture plate lid. Each lid was loaded with approximately 55 droplets. After loading, the lid was placed onto a tissue culture plate containing 6 mL of sterile PBS (phosphate-buffered saline) and incubated for 48 hours to facilitate spheroid formation. […]

circulating 4T1 cells = test: Cell death / caspase 3 activation in circulating 4T1 cells; format: cell-based, Mouse
Protocol: FIG. 11. T12 targets circulating 4T1 cancer cells. A, Balb/c female mice were inoculated with 4T1 mouse breast cancer cells at mammary fat pads. At day 20 after cell inoculation mice were subjected to PET analysis for metastases detection. White arrows denote metastatic foci at the spinal cord. B, Balb/c female from A were either left untreated (Control), or were treated with T12 in drinking water from day 20. At day 35 blood was seeded in the presence of 6-thioguanine and circulating 4T1 cells selected and further cultured. Shown are phase contrast images of the resulting cultures acquired with an inverted microscope. […] C, circulating 4T1 cells recovered as in B and 4T1 cells were cultured in standard 2D cultures and subjected to RNA extraction, and RNA samples were analyzed by RT-qPCR. Shown are the relative quantities (RQ) of the indicated mRNAs of circulating 4T1 cells using levels from 4T1 cells as reference. […] Dead cells in culture media were quantified by measuring cell size using an automated cell counter (Moxi Z, Orflo). […] E, circulating 4T1 cells recovered as in B or 4T1 cells were cultured in ultra-low binding plates and treated with the indicated concentrations of T12 for 9 days, cells were lysed and analyzed by Western blot using antibodies specific for activated caspase 3. The levels of GAPDH were determined for loading control purposes. […]

stem A549 cells = conditions: WO/2014/006020; cited from earlier work

For `COc1ccc(-c2ccc(-c3cccc(C)c3)c(C)c2)c(CCC(=O)O)c1` [T12, 3-[4″-methoxy-3,2′-dimethyl-(1,1′;4′,1″)terphenyl-2″-yl] propionic acid], the “intracellular accumulation of doxorubicin (nuclei containing doxorubicin)” value ([1]; T12 10 μM last 2 days, doxorubicin 1 μM 3 h before analysis) was “accumulating doxorubicin inside the cells; also recorded: more abundant in spheroids treated with doxorubicin and T12 than in spheroids treated only with doxorubicin”, the “viability of spheroids with doxorubicin” value ([1]; T12 10 μM plus doxorubicin 1 μM) was “sharply reduced the viability” and the “sensitivity to T12 after further induction of mesenchymal phenotype” value (circulating 4T1 cells; 4T1 cells inoculated into mice or cultured in low adherent dishes (3D cultures), FIG. 11) was “more sensitivity to T12”. For the same compound, the “sensitivity to T12: dead cells and activated caspase 3” value (circulating 4T1 cells; 24 h (dead cells) or 9 days in ultra-low binding plates (caspase 3), FIG. 11D-E) was “more sensitive and underwent apoptotic cell death (caspase 3 activation)” and the “doxorubicin accumulation and viability” value (stem A549 cells) was “accumulated doxorubicin reducing viability”.
